Measurements from patent publication US20130344053A1, “Methods of Modifying Insulin Signaling Using Biliverdin Reductase (BVR) and BVR Derived Peptides” (University of Rochester, priority 2010, published 2013).

Legend:
[1] = system: rat smooth muscle cells (PAC1); assay: Glucose uptake in PAC1 cells (IGF-dependent); format: cell-based; conditions: myristoylated peptide 2 h, then IGF-1 50 ng/ml 10 min
Protocol: Glucose uptake was tested as described infra. Cells were starved in low glucose serum-depleted DMEM for 20 hours prior to transfer to PBS containing CaCl2, MgCl2. After 2 hrs myristoylated peptides were added to the medium for 2 hours. Thereafter, IGF-1 (50 ng/ml) or insulin (100 nM) was added (10 min) and glucose uptake was tested for 3 min in the presence of methyl-D-glucose,3-O-[methyl-3H]. Subsequently cells were washed 3 times in cold PBS and solubilized in NaOH (0.05 mM). Aliquots were measured for radioactivity. Non-specific binding or diffusion were tested by addition of 300 mM glucose to the cells. This value was deducted from the total counts (on the average <20%) and results were normalized for protein concentration.
(§1) FIGS. 15A-B show the effect of hBVR-based peptides on IGF-dependent glucose uptake in rat smooth muscle cells (PAC1) (FIG. 15A) and insulin-dependent glucose uptake in human epithelial kidney (HEK) cells (FIG. 15B). Cells were treated as described for FIG. 14 and glucose uptake was measured as described infra.
(§2) The therapeutic utility of various BVR peptides with regard to their ability to modify insulin and insulin growth factor (IGF) mediated cellular glucose uptake was evaluated. Human embryonic kidney cells (HEK293) or rat aortic smooth muscle cells (PAC) were starved in low glucose serum-depleted DMEM for twenty hours prior to transfer to PBS containing CaCl2, MgCl2. After two hours, myristoylated peptides were added to the medium for two additional hours. Thereafter, IGF-1 (50 ng/ml) or insulin (100 nM) was added (10 min) and glucose uptake was tested for three minutes in the presence of methyl-D-glucose,3-O-[methyl-3H]. Subsequently, cells were washed three times in cold PBS and solubilized in NaOH (0.05 mM). Aliquots were measured for radioactivity. Non-specific binding or diffusion was tested by addition of 300 mM glucose to the cells. This value was deducted from the total counts (on the average <20%) and results were normalized for protein concentration.

[2] = system: human epithelial kidney (HEK) cells; assay: Insulin-dependent glucose uptake in HEK cells; format: cell-based; conditions: myristoylated peptide 2 h, then insulin 100 nM 10 min
Protocol: as §1, §2

[3] = Blood glucose levels after tail vein injection; format: in vivo; conditions: Sprague Dawley rats, 11 μg/g body weight, measured at 20, 40, 60, 100 min
Protocol: FIG. 16 is a graph illustrating the blood glucose levels measured over time course following tail vein injection to Sprague Dawley rats of the KKRILHC (SEQ ID NO: 60) peptide in solution (11 μg/g body weight) or a vehicle control solution.
In an experiment designed to evaluate the ability of the C-terminal KKRILHC BVR peptide fragment (SEQ ID NO: 60) to modulate insulin signaling and blood glucose levels, Sprague Dawley rats were administered, via tail vein injection, the KKRILHC peptide (SEQ ID NO: 60) in solution (11 μg/g body weight) or a vehicle control solution. […] This increase in blood glucose levels was at 20, 40, and 60 minutes following administration, gradually decreasing over the 100 minute time course of assessment.

KKRILHC (Biliverdin reductase derived peptide) [hBVR peptide, amino acids 275-281 of BVR]
IGF-mediated cellular glucose uptake in PAC1 cells [1]: inhibit IGF-mediated cellular glucose uptake | insulin mediated cellular glucose uptake in HEK cells [2]: antagonizing insulin mediated cellular glucose uptake | blood glucose levels compared to vehicle controls [3]: immediate increase in the blood glucose levels
